Measurements from patent US7879843B2, “Benzothiazin-3-one compound and intermediate therefor” (Dainippon Sumitomo Pharma Co., Ltd., priority 2004, dated 2011).
Structures can show the parent of a compound that is named as a salt. Values belong to the compound of their own block, whether it stands above or below them.

Key:
[1] = tested on: rat partial-meniscectomy models; test: Pharmacological test on rat partial-meniscectomy models; assay type: in vivo; conditions: 50 mg/kg, orally six times per week for 3 weeks, SD (IGS) male rats
Excerpt: SD (IGS) male rats aged 6 weeks (purchased from Charles River Japan Inc.) were used. The hair on the knee joint portion of right hind leg of each rat was shaved with a hair clipper under etherisation, and then the skin on the joint side of the lateral collateral ligament was incised along the ligament. Subsequently, the fascia was incised and the lateral collateral ligament was resected in a length of about 3 mm. Thereafter, the medial meniscus was exposed and the matters adhering to the meniscus were removed. The meniscus was picked up with tweezers and a part of the meniscus was cut off along the tweezers with microscissors. The fascia and the skin were sutured. One week after the above treatment, the administration of each test compound was started. The volume of the test compound administered was 10 ml/kg (solvent: 0.5% methyl cellulose) and the test compound was orally administered six times per week for 3 weeks. After the body weight was measured, the shinbone of the right hind leg was collected and fixed in 10% neutral buffered formalin. […] The average of scores for rats in each group was calculated and the degree of chondrodegeneration of a pathosis control group was taken as 100%. The chondrodegeneration inhibition rate of each compound was calculated by the following equation: Inhibition rate=1−(average score value of drug-treated group/score value of control group)×100

human MMP-13 = biological target: T1, human MMP-13 (Homo sapiens, UniProt P45452); test: Inhibitory activity against MMP-13 (fluorogenic MCA substrate); assay type: biochemical; conditions: activated human MMP-13, 37° C. for 12 hours
T1 construct: made in house; host or cells: COS-1 cells (pcDNA I vector), culture supernatant
Excerpt: As MMP-13, there was used one which had been prepared by genetic engineering (using a well-known human chondrocyte cDNA library as a template, cDNA fragments were amplified by PCR by the use of primers 5′-[…]-3′ (SEQ ID NO: 1) and 5′-[…]-3′ (SEQ ID NO: 2) and each of the cDNA fragments amplified was inserted in a vector pcDNA I, and the vector was introduced into COS-1 cells derived from Afurikamidorizaru kidney, followed by culture and the recovery of the supernatant of a culture medium) on the basis of the well-known genetic base sequence of human MMP-13 (J. Biol. Chem., 269 (24), 16766-16773 (1994)) and had been activated by maintaining the thus prepared MMP-13 at 37° C. for 2 hours in the presence of 1 mM mercury 4-aminophenylacetate.
Inhibitory activity against human MMP-13 was measured according to the method of C. G. Knight et al. (FEBS Lett., 296 (3), 263-266 (1992)).
That is, 45 μl of assay buffer (0.1M Tris-hydrochloric acid, 0.1M sodium chloride, 0.01M calcium chloride, 0.05% Brigy 35, pH=7.5) was placed in a 96-well micro-titer plate for fluorometry, and 5 μl of a solution of a test compound in dimethyl sulfoxide was added thereto. […] After the micro-titer plate was maintained at 37° C. for 12 hours to carry out the reaction, fluorescence was measured with the fluorescence plate reader to measure the residual enzyme activity.

melting point: 143.5 to 144.5 °C
SMILES: CCOC(=O)c1ccc2c(c1)N(CC(=O)NO)C(=O)[C@H](CCCc1ccc(OC)cc1)S2 (as salt: TFA) [Example 7, (−)-Ethyl 4-[2-(hydroxyamino)-2-oxoethyl]-2-[3-(4-methoxyphenyl)propyl]-3-oxo-3,4-dihydro-2H-1,4-benzothiazine-6-carboxylate]

SMILES: CCOC(=O)c1ccc2c(c1)N(CC(=O)NO)C(=O)[C@H](CCCc1ccc(OC)cc1)S2 [Example 7, (−)-Ethyl 4-[2-(hydroxyamino)-2-oxoethyl]-2-[3-(4-methoxyphenyl)propyl]-3-oxo-3,4-dihydro-2H-1,4-benzothiazine-6-carboxylate]
chondrodegeneration inhibition rate [1]: 52%

IC50 (human MMP-13): 44 nM
SMILES: COc1ccc(CCC[C@@H]2Sc3ccc(C(=O)O)cc3N(CC(=O)NO)C2=O)cc1 [Example 14, (−)-4-[2-(Hydroxyamino)-2-oxoethyl]-2-[3-(4-methoxyphenyl)propyl]-3-oxo-3,4-dihydro-2H-1,4-benzothiazine-6-carboxylic acid]
